The supplement of paper PMC10307832

Key:
Assay in all cases: relative viability (nuclei count vs DMSO), 5 days (fraction); higher = more cells survive
[1] = compound: CC(C)(C)c1cc(NC(=O)Nc2ccc(-c3cn4c(n3)sc3cc(OCCN5CCOCC5)ccc34)cc2)no1 [Quizartinib] + Cc1cc(Nc2cc(N3CCN(C)CC3)nc(Sc3ccc(NC(=O)C4CC4)cc3)n2)n[nH]1 [Tozasertib] (partner 0.1 µM)
Outline: (§1)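 Lung cancer cell lines were pin-tool dosed in 1536-well plates on the day after seeding, with either a lone drug or a fixed anchor-drug dose plus five library-drug doses (not always all listed) in √10 steps. Nuclei were counted on 4× images after 5 days. Relative viability is the ratio of treated-well to vehicle-well nuclei counts, with each value a median of duplicate plates.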

[2] = compound: CC(C)(C)c1cc(NC(=O)Nc2ccc(-c3cn4c(n3)sc3cc(OCCN5CCOCC5)ccc34)cc2)no1 [Quizartinib] + NC(=O)Nc1cc(-c2cccc(F)c2)sc1C(=O)N[C@H]1CCCNC1 [AZD7762] (partner 0.2 µM)
Outline: as §1

[3] = compound: COCC[n+]1c2c(n(Cc3cnccn3)c1C)C(=O)c1ccccc1C2=O [YM155] + N=C(N)NC(=N)NCCc1ccccc1 [Phenformin] (partner 250 µM)
Outline: as §1

[4] = compound: CC(C)(C)c1cc(NC(=O)Nc2ccc(-c3cn4c(n3)sc3cc(OCCN5CCOCC5)ccc34)cc2)no1 [Quizartinib] + Nc1nc2[nH]cc(CCc3ccc(C(=O)N[C@@H](CCC(=O)O)C(=O)O)cc3)c2c(=O)[nH]1 [Pemetrexed] (partner 0.2 µM)
Outline: as §1

## ChaGo-K-1
[1]; first compound 0.001 µM
  relative viability: 0.235
[1]; first compound 0.003162 µM
  relative viability: 0.234
[1]; first compound 0.01 µM
  relative viability: 0.209
[1]; first compound 0.03162 µM
  relative viability: 0.205
[1]; first compound 0.1 µM
  relative viability: 0.197
[2]; first compound 0.003162 µM
  relative viability: 0.841
[2]; first compound 0.01 µM
  relative viability: 0.981
[2]; first compound 0.03162 µM
  relative viability: 0.84
[2]; first compound 0.1 µM
  relative viability: 0.932
[3]; first compound 0.002 µM
  relative viability: 0.469
[3]; first compound 0.006325 µM
  relative viability: 0.488
[3]; first compound 0.02 µM
  relative viability: 0.519
[3]; first compound 0.06325 µM
  relative viability: 0.578
[4]; first compound 0.003162 µM
  relative viability: 0.247
[4]; first compound 0.01 µM
  relative viability: 0.264
[4]; first compound 0.03162 µM
  relative viability: 0.26
[4]; first compound 0.1 µM
  relative viability: 0.264

## NCI-H441
[1]; first compound 0.001 µM
  relative viability: 0.66
[1]; first compound 0.003162 µM
  relative viability: 0.599
[1]; first compound 0.01 µM
  relative viability: 0.586
[1]; first compound 0.1 µM
  relative viability: 0.489
[2]; first compound 0.001 µM
  relative viability: 0.872
[2]; first compound 0.003162 µM
  relative viability: 1.04
[2]; first compound 0.01 µM
  relative viability: 1.14
[2]; first compound 0.03162 µM
  relative viability: 0.991
[2]; first compound 0.1 µM
  relative viability: 1.1
[3]; first compound 0.002 µM
  relative viability: 0.776
[3]; first compound 0.006325 µM
  relative viability: 0.848
[3]; first compound 0.02 µM
  relative viability: 0.763
[3]; first compound 0.06325 µM
  relative viability: 0.865
[4]; first compound 0.001 µM
  relative viability: 0.261
[4]; first compound 0.003162 µM
  relative viability: 0.267
[4]; first compound 0.01 µM
  relative viability: 0.247
[4]; first compound 0.03162 µM
  relative viability: 0.255
[4]; first compound 0.1 µM
  relative viability: 0.287
